Measured values taken from publication PMC8129719 (CPT: Pharmacometrics & Systems Pharmacology, 2021).
“And” between values parts separate entries of the source, which are not always exact repeats. Equal values may be shown once. Where a name gives a salt, the structure may show the parent alone. Read-outs that look alike come from different tables or passages of the source.

Tests used:
[1] = probenecid 500 mg 4 times a day; ref Willemin et al. (accepted for publication); cited from earlier work
[2] = Population PK model of probenecid plasma data; type: in vivo, human; conditions: for CL, IIV (SE%) / V, IIV (SE%): interindividual variability
[3] = type: in vivo, human; conditions: for CL renal: female, human, plasma and urine, oral; for contribution of renal elimination to total clearance: from model CLr and CLnr; for CLr, IIV (SE%) / k syn, IIV (SE%): interindividual variability; for CLnr, population estimate (SE%): nonrenal clearance of biomarker; for V, population estimate (SE%): volume of distribution of biomarker; for k syn, population estimate (SE%): zero-order synthesis rate
[4] = probenecid 1000 mg single dose, 14 healthy volunteers, digitized data; cited from earlier work

SMILES	fold change of plasma AUC0-24 h following probenecid [1] [fold]	ka, population estimate (SE%) ([2]; absorption rate constant)	CL, IIV (SE%) [2]	V, IIV (SE%) [2]	CL, IIV (SE%) ([2]; listed as probenecid) [%]	V, IIV (SE%) ([2]; listed as probenecid) [%]	V, population estimate (SE%) ([2]; probenecid one-compartment model)	CL renal [3] [mL/min]	contribution of renal elimination to total clearance [3] [%]	CLr, IIV (SE%) [3]	k syn, IIV (SE%) [3]	CLr, IOV (SE%) ([3]; interoccasion variability)	CLnr, population estimate (SE%) [3]	V, population estimate (SE%) [3]	k syn, population estimate (SE%) [3]	mean plasma AUC0-tlast ratio, observed [4]	k syn, IOV (SE%) ([3]; interoccasion variability between the two phases)
C[C@H](CCC(=O)NCC(=O)O)[C@H]1CC[C@H]2[C@@H]3[C@H](O)C[C@@H]4C[C@H](OS(=O)(=O)O)CC[C@]4(C)[C@H]3CC[C@]12C [GCDCA-S, glycochenodeoxycholate sulfate]	1.9	–	–	–	–	–	–	–	–	–	–	–	–	–	–	–	–
CCCN(CCC)S(=O)(=O)c1ccc(C(=O)O)cc1 [Probenecid, probenecid]	–	0.74 (45) /h	23 (23) %	40 (29) %	23	40	15 (22) L	–	–	–	–	–	–	–	–	–	–
COc1cc(CC(=O)O)ccc1O [HVA, homovanillic acid]	2.2	–	–	–	–	–	–	340	94	23 (26) %	27 (19) %	5 (48) %	1.29 (69) L/h	105 (35) L	212 (16) µg/h	–	–
Cc1ncc(CO)c(C(=O)O)c1O [PDA, Pyridoxic acid]	3.9	–	–	–	–	–	–	253	82	27% and 27 (15) %	32% and 32 (34) %	–	3.23 (41) L/h	9.34 (56) L	58.6 (26) µg/h	1.95	22 (57) %
